# Bridges are numbered along the chain shown (N, C = ends). Where no end group is shown, it is not given here.
# T1: RANKL (Homo sapiens, UniProt O14788)
# T1 sequence (O14788 140-317 limits assumed): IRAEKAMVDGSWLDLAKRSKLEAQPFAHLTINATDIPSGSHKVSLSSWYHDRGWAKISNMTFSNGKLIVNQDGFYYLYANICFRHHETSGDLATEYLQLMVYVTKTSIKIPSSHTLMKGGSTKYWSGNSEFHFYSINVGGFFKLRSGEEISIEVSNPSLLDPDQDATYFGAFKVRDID
# B1: Dkk-1: rhDkk-1 (R&D), Wnt antagonist (protein, UniProt O94907 32-266, looked up)
# Dickkopf-related protein 1: TLNSVLNSNAIKNLPPPLGGAAGHPGSAVSAAPGILYPGGNKYQTIDNYQPYPCAEDEECGTDEYCASPTRGGDAGVQICLACRKRRKRCMRHAMCCPGNYCKNGICVSSDQNHFRGEIEETITESFGNDHSTLDGYSRRTTLSSKMYHTKGQEGSVCLRSSDCASGLCCARHFWSKICKPVLKEGQVCTKHRRKGSHGLEIFQRCYCGEGLSCRIQKDHHQASNSSRLHTCQRH
# B2: BMPR-IA: BMPR-IA (R&D), BMP antagonist (protein, UniProt P36894 24-152, looked up)
# extracellular domain: QNLDSMLHGTGMKSDSDQKKSENGVTLAPEDTLPFLKCYCSGHCPDDAINNTCITNGHCFAIIEEDDQGETTLASGCMKYEGSDFQCKDSPKAQLRRTIECCRTNLCNQYLQPTLPPVVIGPFFDGSIR
# modifications: extracellular domain soluble reagent
# notes: BMPR-IA (R&D), BMP antagonist
# Legend:
# MC3T3-E1 cells = test: ALP activity determination in MC3T3-E1 cells; assay type: cell-based, mouse; settings: for inhibition of ALP activity enhancement caused by BMP-2: 100 ng/ml BMP-2; for inhibition of ALP activity enhancement caused by peptide D: 200 μM peptide D
# Experimental: Seven days after differentiation, the culture supernatant was removed from each plate and the cells were fixed with an acetone/ethanol solution. The ALP activity was determined using p-nitrophenyl phosphate as a substrate. Specifically, a carbonate buffer (5 mM MgCl2, 50 mM NaHCO3) containing p-nitrophenyl phosphate (Nacalai) (1 mg/mL) was added to each well (100 μL/well), followed by incubation at 37° C. Then, the OD value at 405 nm was determined with the use of a microplate reader (BMG Labtech) for each well.
# Cells mixed with 10% FBS+αMEM (GIBCO) were seeded on a 96-well plate (8×10^3 cells/well) and a 48-well plate (2×10^4 cells/well). The culture supernatant of each plate was replaced with 10% FBS+αMEM containing 5 mM β glycerophosphoric acid (SIGMA)+10 μg/mL sodium ascorbate (SIGMA) 48 hours later. Then, the medium was replaced with new medium every 3 or 4 days. As a control, MC3T3-E1 was cultured with the use of 10% FBS+αMEM as a maintenance medium. Upon medium replacement, a peptide was added to each plate at a concentration of 300 μM, ALP activity determination and alizarin red S staining were carried out by the method described in Example 1 on Days 7 and 21.
# MC3T3-E1 cells mixed with 10% FBS+αMEM (SIGMA) were seeded on a 96-well plate (1.5×10^4 cells/well). After 12 hours, the medium was removed therefrom and a medium containing an SB203580 p38 inhibitor (Calbiochem) was added thereto. […] Then, ALP activity determination was carried out by the method described in Example 1.
# Similarly, rhDkk-1 (R&D) was added as a Wnt antagonist at concentrations of 0.25, 0.5, and 1 μg/ml. After 1 hour, 200 μM peptide D was added thereto, followed by culture for 5 days. Then, ALP activity determination was carried out by the method described in Example 1.
# In addition, as described above, BMPR-IA (R&D) was added as a BMP antagonist at concentrations of 0.25 and 1 μg/ml. […] Then, ALP activity determination was carried out by the method described in Example 1. […] Based on the above results, it was likely that actions of peptide D depend on BMP induction or BMP produced constantly and spontaneously by cells.
# MC3T3-E1 cells mixed with 10% FBS+α MEM (SIGMA) were seeded on a 96-well plate (1.5×10^4 cells/well).
# Further, peptide D and peptide E were compared with each other in terms of ALP activity enhancement actions in MC3T3-E1 cells. Peptide D and peptide E were used at concentrations of 25, 50, 100, and 200 μM for culture under the conditions described in Example 14, followed by determination of ALP activity by the method described in Example 1.
# MC3T3-E1 cells (mouse osteoblast precursor cells) mixed with 10% FBS+αMEM (SIGMA) were seeded on a 96-well plate (2×10^4 cells/well). After cell adhesion, the medium was removed therefrom, followed by ALP activity determination in the cases involving the addition of 50 and 150 μM peptide D (acetate and hydrochloride). […] On Day 5 after the addition of the individual factors, the culture supernatant was removed, followed by ALP activity determination by the method described in Example 1.
# MC3T3-E1 cells (mouse osteoblast precursor cells) mixed with 10% FBS+αMEM (SIGMA) were seeded on a 96-well plate (2×10^4 cells/well). After cell adhesion had taken place, the medium was removed therefrom, followed by determination of ALP activity in the cases involving the mixing of 5 ng/mLBMP-2 (produced by CHO cells) with 6.25, 12.5, 25, 50, and 100 μM synthetic peptide D. On Day 5 after the addition of the individual factors, the culture supernatant was removed, followed by ALP activity determination by the method described in Example 1.
# At the end of the experiment, synergistic effects of synthetic peptide D in the form of acetate and BMP-4 (R&D) were also examined. MC3T3-E1 cells (mouse osteoblast precursor cells) mixed with 10% FBS+αMEM (SIGMA) were seeded on a 96-well plate (2×10^4 cells/well). […]
# C57BL/6N mice = test: RANKL administration test, bone morphology measurement; assay type: in vivo, mouse
# Experimental: GST-RANKL was intraperitoneally administered at 57 nmol (low dose) or at 426 nmol (high dose) to 7-week-old female C57BL/6N mice (10 individuals) every 24 hours for three times. The mice were dissected 1.5 hours after the third administration. For comparison, a group to which PBS had been administered was used as a control.
# The following organs were collected from each dissected mouse: femur, tibia, cerebrum, lungs, heart, liver, thymus, spleen, kidneys, and skin. Naturally occurring lesions were observed by HE staining of the cerebrum, the lungs, the heart, the liver, the thymus, the spleen, the kidneys, and the skin.
# RAW264 cells = test: TRAP activity in RAW264 cells with GST-RANKL; assay type: cell-based
# Experimental: Peptide E (SEQ ID NO: 16) was prepared from peptide D with the substitution of a single amino acid. TRAP activity and ALP activity were determined to compare peptide D and peptide E in terms of effects of causing osteoclast differentiation and osteoblast differentiation. RAW264 cells mixed with 10% FBS+αMEM (SIGMA) were seeded on a 96-well plate (2×10^3 cells/well). After confirmation of cell adhesion, the medium was replaced with 10% FBS+αMEM containing 10 nM GST-RANKL (Oriental Yeast Co., Ltd.). Peptide D and peptide E were separately added thereto at concentrations of 25, 50, 100, and 200 μM, followed by culture for 4 days. After the termination of culture, 100 μL acetone/ethanol was added to each well for cell fixation, followed by drying in a draft for 30 min.
# In order to obtain a TRAP solution buffer at a concentration of 1.5 mg/mL, a solution was prepared by adjusting p-nitrophenyl phosphate (Nacalai) with 50 mM citric acid buffer and adding a 0.2 M sodium tartrate solution in a volume 1/10 that of citric acid buffer. The obtained TRAP solution buffer was added to each well in an amount of 100 μL followed by incubation at 37° C. for 45 min. Then, a 1N NaOH solution (50 μL) was added thereto to terminate the reaction. The OD value at 405 nm was determined for each well with a microplate reader (BMG Labtech) in the same manner as in Example 1.
# RAW264 cells mixed with 10% FBS+αMEM (SIGMA) were seeded on a 96-well plate (2×10^3 cells/well). After cell adhesion had taken place, the medium was replaced with 10% FBS+αMEM containing 5 nM GST-RANKL (Oriental Yeast Co., Ltd.). Peptide D in the form of TFA, peptide D in the form of acetate, and peptide D in the form of hydrochloride with concentrations of 25 and 100 μM were separately added thereto, followed by culture for 4 days. After the completion of culture, acetone/ethanol (100 μL) was added to each well for cell fixation, followed by drying in a draft for 30 min. TRAP activity determination was carried out by the method described in Example 16. […] Peptide D in the form of hydrochloride was confirmed to have neither osteoblast differentiation activity nor osteoclastgenesis inhibition activity. However, peptide D in the form of acetate was confirmed to have higher osteoblast differentiation activity and lower osteoclastgenesis inhibition activity compared with peptide D in the form of TFA. […] It is also possible to produce modified peptide D having osteoblast differentiation activity alone or modified peptide D having osteoclastgenesis inhibition activity alone.
# RANKL = molecular target: T1, RANKL; settings: Aoki et al., J Clin Invest 116: 1525, 2006; cited from earlier work
# [1] = high dose 426 nmol i.p. every 24 hours, three times
# [2] = compared at concentrations with almost comparable effects
molecule,measurement,setting,value
GST-RANKL: GST fusion protein with amino acids 140 to 317 of human RANKL (SEQ ID NO: 15),inhibition of synergistic ALP activity enhancement of peptide D (acetate) and BMP-2,"MC3T3-E1 cells; 100 nM, 100 μM peptide D acetate + 5 ng/mL BMP-2, Day 5",significantly inhibited synergistic effects
same,"HE staining of cerebrum, lungs, heart, liver, thymus, spleen, kidneys, skin","C57BL/6N mice; any group (57 nmol, 426 nmol)",abnormal findings and naturally occurring lesions were not observed
same,osteoclast number,C57BL/6N mice; [1],increased
same,trabecular number,C57BL/6N mice; [1],approximately 50%
same,unit bone mass,C57BL/6N mice; [1],approximately 50%
same,osteoblast surface area,C57BL/6N mice; high-dose administration,significantly increased
same,femur bone morphology by μCT,C57BL/6N mice; high-dose administration group,significant bone decrease
same,unit bone mass and trabecular number,"C57BL/6N mice; low dose 57 nmol i.p. every 24 hours, three times",no such decrease was observed
"peptide E: SEQ ID NO: 16, prepared from peptide D with the substitution of a single amino acid; cyclic, Cys2-Cys8 disulfide (YCWSQNLCY; disulfide 2-8)",ALP activity,"MC3T3-E1 cells; 25, 50, 100 and 200 μM, 5 days",enhance ALP activity in a concentration-dependent manner
same,ALP activity enhancement actions relative to the initial level (peptide D),MC3T3-E1 cells; [2],approximately ¼
same,TRAP activity,"RAW264 cells; 25, 50, 100 and 200 μM, 10 nM GST-RANKL, 4 days",inhibit TRAP activity
same,TRAP activity inhibition actions relative to the initial level (peptide D),RAW264 cells; [2],one-half
same,affinity to sRANKL relative to the initial level (peptide D),RANKL,approximately ⅓
"Fc fusion peptide A: fusion protein of peptide A (SEQ ID NO: 47, YCAAAAACY) and Fc; negative control [reference compound]",ALP activity,"MC3T3-E1 cells; concentrated COS-1 culture supernatant diluted with αMEM, Day 5",such ALP activity enhancement action was not observed
"C[S+]([O-])c1ccc(-c2nc(-c3ccncc3)c(-c3ccc(F)cc3)[nH]2)cc1 (centres unmarked) [SB203580, reference compound]",inhibition of ALP activity enhancement caused by BMP-2,"MC3T3-E1 cells; SB203580 1 μM, 5 days",significant inhibition of ALP activity enhancement was not observed
same,inhibition of ALP activity enhancement caused by peptide D,"MC3T3-E1 cells; SB203580 1 μM, 5 days",Significant inhibition
same,inhibition of ALP activity enhancement caused by peptide D,"MC3T3-E1 cells; SB203580 10 μM, 5 days",complete inhibition
same,inhibition of ALP activity enhancement caused by BMP-2,"MC3T3-E1 cells; SB203580 at a concentration of 10, 5 days",weak effects of inhibition
B1,inhibition of ALP activity enhancement caused by peptide D,"MC3T3-E1 cells; rhDkk-1 0.25, 0.5 and 1 μg/ml, 5 days",weakly but significantly inhibit
B2,inhibition of ALP activity enhancement caused by peptide D and BMP-2,"MC3T3-E1 cells; BMPR-IA 0.25 and 1 μg/ml, 200 μM peptide D or 200 ng/ml BMP-2, 5 days",significantly inhibit
